Source: PubChem BioAssay (NCI)
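Growth conditions: 96-well plates. Treatment: test compound, 48 hours, 5 concentrations. Analysis: linear interpolation between bracketing concentrations; unreached endpoints set to highest concentration. Definition used: TGI = concentration required for complete inhibition of growth.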

Experiments:
Test in all cases: NCI tumour cell line growth inhibition, 48 h
SF-295 CNS = test system: SF-295 CNS
SW-620 colon = test system: SW-620 colon
CCRF-CEM leukemia = test system: CCRF-CEM leukemia
SN12C renal = test system: SN12C renal
LOX IMVI melanoma = test system: LOX IMVI melanoma
HOP-18 NSCLC = test system: HOP-18 NSCLC
CAKI-1 renal = test system: CAKI-1 renal
UO-31 renal = test system: UO-31 renal
SK-MEL-28 melanoma = test system: SK-MEL-28 melanoma
HCT-116 colon = test system: HCT-116 colon
OVCAR-8 ovarian = test system: OVCAR-8 ovarian
OVCAR-4 ovarian = test system: OVCAR-4 ovarian
SN12K1 renal = test system: SN12K1 renal
KM12 colon = test system: KM12 colon
NCI/ADR-RES ovarian = test system: NCI/ADR-RES ovarian
U251 CNS = test system: U251 CNS
HCT-15 colon = test system: HCT-15 colon
SNB-19 CNS = test system: SNB-19 CNS
RXF 393 renal = test system: RXF 393 renal
DLD-1 colon = test system: DLD-1 colon
DMS 114 small cell lung = test system: DMS 114 small cell lung
SK-OV-3 ovarian = test system: SK-OV-3 ovarian
SF-539 CNS = test system: SF-539 CNS
MALME-3M melanoma = test system: MALME-3M melanoma
HT29 colon = test system: HT29 colon
RPMI-8226 leukemia = test system: RPMI-8226 leukemia
SF-268 CNS = test system: SF-268 CNS
NCI-H226 lung = test system: NCI-H226 lung
NCI-H460 lung = test system: NCI-H460 lung
SNB-78 CNS = test system: SNB-78 CNS
SK-MEL-5 melanoma = test system: SK-MEL-5 melanoma
HOP-62 NSCLC = test system: HOP-62 NSCLC
UACC-62 melanoma = test system: UACC-62 melanoma
IGROV1 ovarian = test system: IGROV1 ovarian
HL-60(TB) leukemia = test system: HL-60(TB) leukemia
HCC-2998 colon = test system: HCC-2998 colon
A549 NSCLC = test system: A549 NSCLC
SNB-75 CNS = test system: SNB-75 CNS
DMS 273 small cell lung = test system: DMS 273 small cell lung
KM20L2 colon = test system: KM20L2 colon
XF 498 CNS = test system: XF 498 CNS
MCF7 breast = test system: MCF7 breast
HOP-92 NSCLC = test system: HOP-92 NSCLC
SK-MEL-2 melanoma = test system: SK-MEL-2 melanoma
OVCAR-3 ovarian = test system: OVCAR-3 ovarian
RXF-631 renal = test system: RXF-631 renal
ACHN renal = test system: ACHN renal
LXFL 529 NSCLC = test system: LXFL 529 NSCLC
A498 renal = test system: A498 renal
K-562 leukemia = test system: K-562 leukemia
EKVX NSCLC = test system: EKVX NSCLC
TK-10 renal = test system: TK-10 renal
M19-MEL melanoma = test system: M19-MEL melanoma
SR leukemia = test system: SR leukemia
MOLT-4 leukemia = test system: MOLT-4 leukemia
OVCAR-5 ovarian = test system: OVCAR-5 ovarian
COLO 205 colon = test system: COLO 205 colon
M14 melanoma = test system: M14 melanoma
NCI-H23 lung = test system: NCI-H23 lung
NCI-H522 lung = test system: NCI-H522 lung
UACC-257 melanoma = test system: UACC-257 melanoma
786-0 renal = test system: 786-0 renal

## O=c1cc(O)ccn1C1C=C(CO)C(O)C1O (centres undefined)
SF-295 CNS
  TGI: > 625 µM
SW-620 colon
  TGI: > 625 µM
CCRF-CEM leukemia
  TGI: > 625 µM
SN12C renal
  TGI: > 625 µM
LOX IMVI melanoma
  TGI: > 625 µM
HOP-18 NSCLC
  TGI: > 625 µM
CAKI-1 renal
  TGI: > 625 µM
UO-31 renal
  TGI: > 625 µM
SK-MEL-28 melanoma
  TGI: > 625 µM
HCT-116 colon
  TGI: > 625 µM
OVCAR-8 ovarian
  TGI: > 625 µM
OVCAR-4 ovarian
  TGI: > 625 µM
SN12K1 renal
  TGI: > 625 µM
KM12 colon
  TGI: > 625 µM
NCI/ADR-RES ovarian
  TGI: > 625 µM
U251 CNS
  TGI: > 625 µM
HCT-15 colon
  TGI: > 625 µM
SNB-19 CNS
  TGI: > 625 µM
RXF 393 renal
  TGI: > 625 µM
DLD-1 colon
  TGI: > 625 µM
DMS 114 small cell lung
  TGI: > 625 µM
SK-OV-3 ovarian
  TGI: > 625 µM
SF-539 CNS
  TGI: > 625 µM
MALME-3M melanoma
  TGI: > 625 µM
HT29 colon
  TGI: > 625 µM
RPMI-8226 leukemia
  TGI: > 625 µM
SF-268 CNS
  TGI: > 625 µM
NCI-H226 lung
  TGI: > 625 µM
NCI-H460 lung
  TGI: > 625 µM
SNB-78 CNS
  TGI: > 625 µM
SK-MEL-5 melanoma
  TGI: > 625 µM
HOP-62 NSCLC
  TGI: > 625 µM
UACC-62 melanoma
  TGI: > 625 µM
IGROV1 ovarian
  TGI: > 625 µM
HL-60(TB) leukemia
  TGI: > 625 µM
HCC-2998 colon
  TGI: > 625 µM
A549 NSCLC
  TGI: > 625 µM
SNB-75 CNS
  TGI: > 625 µM
DMS 273 small cell lung
  TGI: > 625 µM
KM20L2 colon
  TGI: > 625 µM
XF 498 CNS
  TGI: < 0.0625 µM
MCF7 breast
  TGI: > 625 µM
HOP-92 NSCLC
  TGI: > 625 µM
SK-MEL-2 melanoma
  TGI: > 625 µM
OVCAR-3 ovarian
  TGI: > 625 µM

## O=C(O)CCC(=O)N1C/C(=C\c2ccccc2)C(=O)/C(=C/c2ccccc2)C1
SF-295 CNS
  TGI: 6.03 µM
RXF-631 renal
  TGI: 11.2 µM
SW-620 colon
  TGI: 3.77 µM
CCRF-CEM leukemia
  TGI: 9.93 µM
ACHN renal
  TGI: 4 µM
LXFL 529 NSCLC
  TGI: 7.17 µM
SN12C renal
  TGI: 3.52 µM
LOX IMVI melanoma
  TGI: 3.36 µM
HOP-18 NSCLC
  TGI: 16.1 µM
CAKI-1 renal
  TGI: 14.9 µM
UO-31 renal
  TGI: 33 µM
SK-MEL-28 melanoma
  TGI: 3.55 µM
HCT-116 colon
  TGI: 3.16 µM
A498 renal
  TGI: 27.3 µM
K-562 leukemia
  TGI: > 24.6 µM
EKVX NSCLC
  TGI: 15.9 µM
OVCAR-8 ovarian
  TGI: 8.24 µM
TK-10 renal
  TGI: 21.2 µM
OVCAR-4 ovarian
  TGI: 4.86 µM
M19-MEL melanoma
  TGI: 3.47 µM
SR leukemia
  TGI: 3.96 µM
MOLT-4 leukemia
  TGI: 8.22 µM
OVCAR-5 ovarian
  TGI: 28.3 µM
KM12 colon
  TGI: 3.34 µM
U251 CNS
  TGI: 3.29 µM
COLO 205 colon
  TGI: 11.3 µM
HCT-15 colon
  TGI: 4.8 µM
SNB-19 CNS
  TGI: 13.8 µM
RXF 393 renal
  TGI: 12.7 µM
DLD-1 colon
  TGI: 5.06 µM
DMS 114 small cell lung
  TGI: 4.73 µM
SK-OV-3 ovarian
  TGI: 25.3 µM
SF-539 CNS
  TGI: 3.85 µM
M14 melanoma
  TGI: 5.39 µM
MALME-3M melanoma
  TGI: 5.52 µM
NCI-H23 lung
  TGI: 12.7 µM
HT29 colon
  TGI: 4.65 µM
RPMI-8226 leukemia
  TGI: 19.9 µM
SF-268 CNS
  TGI: 5.5 µM
NCI-H522 lung
  TGI: 3.38 µM
UACC-257 melanoma
  TGI: 6.53 µM
NCI-H226 lung
  TGI: 34.3 µM
NCI-H460 lung
  TGI: 25.2 µM
SNB-78 CNS
  TGI: 31.4 µM
SK-MEL-5 melanoma
  TGI: 6.9 µM
HOP-62 NSCLC
  TGI: 31.3 µM
UACC-62 melanoma
  TGI: 2.63 µM
IGROV1 ovarian
  TGI: 12.7 µM
HL-60(TB) leukemia
  TGI: 4.59 µM
HCC-2998 colon
  TGI: 4.53 µM
A549 NSCLC
  TGI: 34.5 µM
SNB-75 CNS
  TGI: 19.1 µM
DMS 273 small cell lung
  TGI: 4.97 µM
KM20L2 colon
  TGI: 9.89 µM
XF 498 CNS
  TGI: 6.56 µM
786-0 renal
  TGI: 5.75 µM
HOP-92 NSCLC
  TGI: 30.8 µM
SK-MEL-2 melanoma
  TGI: 4 µM
OVCAR-3 ovarian
  TGI: 5.93 µM
